# Measured values taken from patent publication US20260226059A1, “HETEROCYCLIC COMPOUNDS AS PI3Ka INHIBITORS” (Pikavation Therapeutics, Inc., priority 2023, published 2026).
# Tested on: T47D (PIK3CA H1047R) cells
# Assay: PS473 AKT assay in T47D (PIK3CA H1047R) cells
# Format: cell-based
# Settings: Homo sapiens, pSer473 AKT, DMEM with 2.5% FBS, compound treatment 2 h, read-out: T47D_IC50
# Protocol: T47D (PIK3CA H1047R) cells were cultured using 10-cm petri dishes with recommended medium plus 10% fetal bovine serum. One day before the assay, cells were seeded in 96-well plates. After overnight incubation, the medium was changed to DMEM with 2.5% fetal bovine serum (FBS) and the cells were treated with different concentrations of the compounds for 2 h. Cells were then fixed using 4% paraformaldehyde at room temperature for 20 min. Aspirate 4% paraformaldehyde, and wash cells using 1× regular phosphate buffered saline 3 times, 5 min each. Aspirate any residual phosphate buffered saline and block cells using 10% goat serum containing 1% bovine serum albumin and 0.3% Triton X-100 at room temperature for 1 h. Without any additional washing, primary antibodies (rabbit anti-pSer473 AKT) were diluted using blocking buffer and added at a final volume of 50 microliter per well. Keep assay plates with primary antibodies overnight at 4° C. Wash cells using 1× regular phosphate buffered saline 3 times, 5 min each. After the final wash, incubate cells with horseradish peroxidase-conjugated secondary antibodies (goat Anti-rabbit IgG) diluted using the same blocking buffer at room temperature for 1 h. Wash cells thoroughly using 1× regular phosphate buffered saline 3 times, 5 min each. Aspirate any residual phosphate buffered saline. Add Super-Signal ELISA Pico Chemiluminescent Substrate at a final volume of 100 microliter per well. Read plates on i3x Multi-Mode Microplate Reader and calculate IC50 values using GraphPad Prism software.
row,Compound,IC50
1,"CCN1CCn2c1nc1c(C(C)Nc3ccccc3C(=O)O)cc(C)cc1c2=O (centres unmarked) [Example 1, 2-((1-(1-Ethyl-7-methyl-5-oxo-1,2,3,5-tetrahydroimidazo[2,1-b]quinazolin-9-yl)ethyl)amino)benzoic acid]",1 to 5 µM
2,"CCN1CCn2c1nc1c(C(C)Nc3ccc(Cl)nc3C(=O)O)cc(C)cc1c2=O (centres unmarked) [Example 2, 6-Chloro-3-((1-(1-ethyl-7-methyl-5-oxo-1,2,3,5-tetrahydroimidazo[2,1-b]quinazolin-9-yl)ethyl)amino)picolinic acid]",< 1 µM
3,"Cc1cc(C(C)Nc2ccccc2C(=O)O)c2nc3n(c(=O)c2c1)CCc1ccccc1-3 (centres unmarked) [Example 3, 2-((1-(10-Methyl-8-oxo-5,8-dihydro-6H-isoquinolino[1,2-b]quinazolin-12-yl)ethyl)amino)benzoic acid]",< 1 µM
4,"Cc1cc(C(C)Nc2ccc(C)nc2C(=O)O)c2nc3n(c(=O)c2c1)CCc1ccccc1-3 (centres unmarked) [Example 4, 6-Methyl-3-((1-(10-methyl-8-oxo-5,8-dihydro-6H-isoquinolino[1,2-b]quinazolin-12-yl)ethyl)amino)picolinic acid]",< 1 µM
5,"Cc1cc(C(C)Nc2ccc(Cl)nc2C(=O)O)c2nc3n(c(=O)c2c1)CCc1ccccc1-3 (centres unmarked) [Example 5, 6-Chloro-3-((1-(10-methyl-8-oxo-5,8-dihydro-6H-isoquinolino[1,2-b]quinazolin-12-yl)ethyl)amino)picolinic acid]",< 1 µM
